Test results taken from patent US8877948B2, “Synthesis process of polyol carbonate from polyols, conducted in using a solvent selective for polyols carbonates” (Arkema France, priority 2008, dated 2014).

Test: Solubility of glycerol carbonate, glycerol and urea in selective solvents
Assay type: physicochemical
Settings: at 25° C.

With `CC(C)C#N` [Isobutyronitrile] the “Solubility of Glycerol Carbonate” value (solute glycerol carbonate in the listed solvent) was >500 mg/mL, the “Solubility of Glycerol” value (solute glycerol in the listed solvent) was 10 mg/mL and the “Solubility of Urea” value (solute urea in the listed solvent) was 60 mg/mL.
